This note sets out measurements from publication PMC6445195, “Synthesis and biological evaluation of aminomethyl and alkoxymethyl derivatives as carbonic anhydrase, acetylcholinesterase and butyrylcholinesterase inhibitors” (Journal of Enzyme Inhibition and Medicinal Chemistry, 2017).

Where “and” joins values, the source holds several entries; their conditions need not be identical. Identical values can stand only once. Like-named read-outs stand apart in the source and are kept apart here.

What all share (experiment): biochemical
Common to all, as to assay type: biochemical

One test has as its target T1, hCA I (Homo sapiens, UniProt P00915).
T1 construct: from tissue; host or cells: fresh human erythrocytes
How it is done: (§1) CA activity was determined using the previously described spectrophotometric procedure of Verpoorte et al. as explained previously.[21] ^, [57] ^, [58] […] The quantity of protein was measured according to the previously described by Bradford method.[61–64] and bovine serum albumin was used as the standard.[65] ^, [66] After the purification method of the CA isoforms, samples were subjected to SDS polyacrylamide gel electrophoresis (SDS-PAGE).[67–69] […] The IC50 values were calculated from activity (%) against compounds inhibition.[72–74] Three various concentrations were used to calculate Ki values.[75–77]

The target of a further test is T2, hCA II (Homo sapiens, UniProt P00918).
T2 construct: from tissue; host or cells: fresh human erythrocytes
How it is done: as §1

Another test has as its target BChE (Homo sapiens, UniProt P06276). The method, then: (§2) Acetylthiocholine iodide (AChI) and butyrylthiocholine iodide (BChI) were used as substrates for the reaction. 5,5′-Dithio-bis(2-nitro-benzoic)acid (DTNB) was used for the measurement of the AChE/BChE activities. Briefly, 1.0 ml of Tris/HCl buffer (1.0 M, pH 8.0), and 10 µL of sample solution were dissolved in deionized water at different concentrations and 50 µL AChE/BChE solution were mixed and incubated for 10 min at 25 °C. Next 50 µL of DTNB (0.5 mM) was added. The reaction was then initiated by the addition of 50 µL of AChI or BChI.

The target in another test is AChE (Homo sapiens, UniProt P22303). Conditions: for AChE/BChE (proportion of AChE to BChE, selectivity): ratio of Ki AChE to Ki BChE. The method, then:
as §2

[1] abbreviates: purified from human erythrocytes, PNA substrate, 22 °C, read-out: IC50 hCA I.
The mark [2] stands for this setting: three concentrations used, read-out: Ki hCA I.
Setting [3] is: purified from human erythrocytes, PNA substrate, 22 °C, read-out: IC50 hCA II.
[4] abbreviates: three concentrations used, read-out: Ki hCA II.
[5] abbreviates: Ellman, Tris/HCl pH 8.0, 25 °C, read-out: IC50 BChE.
[6] abbreviates: Ellman, Tris/HCl pH 8.0, 25 °C, read-out: IC50 AChE.

Sequence of AChE (P22303 32-614): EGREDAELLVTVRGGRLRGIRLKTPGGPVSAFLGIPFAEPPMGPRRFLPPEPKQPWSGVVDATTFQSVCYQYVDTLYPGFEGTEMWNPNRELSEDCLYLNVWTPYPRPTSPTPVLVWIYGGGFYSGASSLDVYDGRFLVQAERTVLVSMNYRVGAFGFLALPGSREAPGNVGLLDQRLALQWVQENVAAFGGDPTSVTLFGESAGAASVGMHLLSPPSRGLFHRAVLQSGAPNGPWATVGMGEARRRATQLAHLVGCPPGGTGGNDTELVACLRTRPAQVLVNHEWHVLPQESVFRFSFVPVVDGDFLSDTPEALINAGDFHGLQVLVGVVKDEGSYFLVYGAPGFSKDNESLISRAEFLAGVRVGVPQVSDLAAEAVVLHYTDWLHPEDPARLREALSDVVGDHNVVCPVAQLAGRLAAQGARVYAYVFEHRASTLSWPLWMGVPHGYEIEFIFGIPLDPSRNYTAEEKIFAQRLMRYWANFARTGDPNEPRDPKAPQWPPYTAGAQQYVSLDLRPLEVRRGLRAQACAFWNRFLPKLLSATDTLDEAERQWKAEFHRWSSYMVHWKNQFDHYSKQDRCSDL
T1 sequence (P00915 whole entry): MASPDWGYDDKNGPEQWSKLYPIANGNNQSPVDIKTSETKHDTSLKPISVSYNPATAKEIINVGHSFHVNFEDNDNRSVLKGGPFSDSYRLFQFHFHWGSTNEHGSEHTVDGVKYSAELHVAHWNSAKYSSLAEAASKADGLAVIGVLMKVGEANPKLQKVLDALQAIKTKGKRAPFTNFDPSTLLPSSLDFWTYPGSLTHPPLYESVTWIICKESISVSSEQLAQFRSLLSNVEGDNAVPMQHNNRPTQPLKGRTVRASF
Sequence of BChE (P06276 29-602): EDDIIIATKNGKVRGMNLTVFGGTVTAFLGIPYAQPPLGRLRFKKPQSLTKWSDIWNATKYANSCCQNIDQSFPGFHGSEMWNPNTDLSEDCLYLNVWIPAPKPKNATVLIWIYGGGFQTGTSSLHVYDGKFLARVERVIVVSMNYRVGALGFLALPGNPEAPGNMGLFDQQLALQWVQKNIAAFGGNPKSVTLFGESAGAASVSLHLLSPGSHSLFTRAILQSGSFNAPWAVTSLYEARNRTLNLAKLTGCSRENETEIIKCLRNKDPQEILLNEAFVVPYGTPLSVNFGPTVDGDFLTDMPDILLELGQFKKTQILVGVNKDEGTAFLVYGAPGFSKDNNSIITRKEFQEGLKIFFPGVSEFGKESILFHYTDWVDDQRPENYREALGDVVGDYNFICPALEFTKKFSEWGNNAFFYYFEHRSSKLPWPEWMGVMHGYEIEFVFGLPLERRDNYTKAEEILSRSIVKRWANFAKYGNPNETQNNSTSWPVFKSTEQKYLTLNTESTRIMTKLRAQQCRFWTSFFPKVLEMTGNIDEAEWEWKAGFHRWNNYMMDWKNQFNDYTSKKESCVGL

As to `S=c1sc2ccccc2n1CN1CCOCC1` [Compound 1, N-oxazinomethylbenzothiazoline-2-thione], the IC50 (in general, the concentration that inhibits the measured activity by half) is 79 nM at hCA I (setting [1]), 104 nM on hCA II (setting [3]), 88 nM on BChE (setting [5]) and 51 nM on AChE (setting [6]). Also, the Ki (as a rule, a measure of affinity in units of concentration, obtained from inhibition or displacement) at hCA I (setting [2]) was 108 ± 35 nM; at hCA II (setting [4]), 81 ± 19 nM; at BChE (read-out: Ki BChE), 32 ± 7 nM; on AChE (read-out: Ki AChE), 26 ± 5 nM. In addition, the “AChE/BChE (proportion of AChE to BChE, selectivity)” value on AChE turned out to be 0.812.

Turning to `S=c1sc2ccccc2n1CN1CCCCC1` [Compound 4, N-Piperidinomethylbenzothiazoline-2-thione], the IC50 on hCA I (setting [1]) turned out to be 86 nM; at hCA II (setting [3]), 99 nM; against BChE, 82 nM; on AChE (setting [6]), 36 nM. Besides, the Ki came out at 86 ± 40 nM at hCA I (setting [2]), 105 ± 25 nM at hCA II (setting [4]), 41 ± 13 nM on BChE and 18 ± 2 nM on AChE (read-out: Ki AChE). Moreover, at AChE, the “AChE/BChE (proportion of AChE to BChE, selectivity)” value was determined as 0.439.

With `CCN(CC)Cn1c(=S)sc2ccccc21` [Compound 5, N-diethylaminomethylbenzothiazoline-2-thione], the IC50 amounted to 82 nM against hCA I, 98 nM against hCA II, 83 nM against BChE and 52 nM on AChE. In addition, the Ki at hCA I turned out to be 70 ± 15 nM; at hCA II, 100 ± 24 nM; on BChE, 51 ± 9 nM; on AChE it was 34 ± 9 nM. On AChE, the “AChE/BChE (proportion of AChE to BChE, selectivity)” value was 0.666.

With `CCN(CC)Cn1c(=S)oc2ccccc21` [Compound 6, N-diethylaminomethylbenzoxazoline-2-thione], the IC50 at hCA I (setting [1]) amounted to 102 nM; on hCA II (setting [3]), 118 nM; against BChE, 80 nM; at AChE (setting [6]) it was 44 nM. Further, the Ki at hCA I (setting [2]) amounted to 123 ± 48 nM; at hCA II (setting [4]), 115 ± 28 nM; at BChE, 30 ± 3 nM; on AChE (read-out: Ki AChE), 45 ± 11 nM. The “AChE/BChE (proportion of AChE to BChE, selectivity)” value at AChE was 1.500.

In the case of `S=c1oc2ccccc2n1CN1CCOCC1` [Compound 8, N-morfolinomethylbenzoxazoline-2-thion], the IC50 came out at 94 nM at hCA I (setting [1]), 119 nM at hCA II (setting [3]), 48 nM at BChE (setting [5]) and 38 nM at AChE (setting [6]). For the same compound, the Ki on hCA I (setting [2]) was 58 ± 15 nM; on hCA II (setting [4]), 121 ± 40 nM; at BChE (read-out: Ki BChE), 23 ± 3 nM; at AChE (read-out: Ki AChE), 32 ± 6 nM. For the same compound, at AChE, the “AChE/BChE (proportion of AChE to BChE, selectivity)” value amounted to 1.391.

Consider `S=c1oc2ccccc2n1CN1CCOC1` [Compound 9, N-oxazolidinomethylbenzoxazoline-2-thione], for which the IC50 is 103 nM on hCA I (setting [1]), 121 nM on hCA II (setting [3]), 84 nM on BChE (setting [5]) and 62 nM at AChE (setting [6]). The Ki on hCA I (setting [2]) worked out at 76 ± 20 nM; on hCA II (setting [4]), 135 ± 33 nM; at BChE (read-out: Ki BChE), 80 ± 9 nM; at AChE (read-out: Ki AChE), 78 ± 36 nM. The “AChE/BChE (proportion of AChE to BChE, selectivity)” value at AChE was 0.975.

Consider `CC(C)OCn1c(=S)oc2ccccc21` [Compound 13, N-isopropoxymethylbenzoxazoline-2-thione], for which the IC50 was 105 nM at hCA I (setting [1]), 122 nM at hCA II (setting [3]), 83 nM on BChE and 63 nM on AChE (setting [6]). Also, the Ki at hCA I (setting [2]) turned out to be 90 ± 23 nM; at hCA II (setting [4]), 94 ± 37 nM; on BChE, 35 ± 4 nM; on AChE (read-out: Ki AChE), 34 ± 5 nM. Further, the “AChE/BChE (proportion of AChE to BChE, selectivity)” value on AChE is recorded as 0.971.

For `COCCOCn1c(=S)oc2ccccc21` [Compound 14, N-(methoxyethoxy)methyl-benzoxazoline-2-thione], the IC50 is 112 nM at hCA I (setting [1]), 128 nM on hCA II (setting [3]), 68 nM against BChE and 38 nM at AChE (setting [6]). Besides, the inhibition constant Ki at hCA I (setting [2]) turned out to be 119 ± 53 nM; at hCA II (setting [4]) it was 142 ± 56 nM; on BChE, 60 ± 13 nM; on AChE (read-out: Ki AChE), 23 ± 4 nM. Further, the “fold of inhibitory activity against AChE/BChE than that of TAC” value at AChE (AChE/BChE selectivity relative to TAC) was 2.22 fold. The “AChE/BChE (proportion of AChE to BChE, selectivity)” value at AChE is 0.388 and 0.383.

Turning to `COCCOCNc1nccs1` [Compound 15, 2-(methoxyethoxy) methylaminothiazole], the IC50 is 128 nM on hCA I (setting [1]), 158 nM at hCA II (setting [3]), 109 nM on BChE (setting [5]) and 43 nM on AChE (setting [6]). In addition, the Ki is 118 ± 27 nM on hCA I (setting [2]), 193 ± 79 nM at hCA II (setting [4]), 45 ± 14 nM at BChE (read-out: Ki BChE) and 25 ± 3 nM on AChE (read-out: Ki AChE). Further, the “AChE/BChE (proportion of AChE to BChE, selectivity)” value at AChE was 0.555.

Consider `CC(C)OCNc1nccs1` [Compound 16, 2-isopropoxymethylaminothiazole], for which the IC50 on hCA I (setting [1]) was 156 nM; at hCA II (setting [3]) it was 167 nM; on BChE, 127 nM; on AChE (setting [6]), 76 nM. Further, the Ki worked out at 132 ± 30 nM on hCA I (setting [2]), 162 ± 29 nM on hCA II (setting [4]), 55 ± 12 nM at BChE and 42 ± 4 nM on AChE (read-out: Ki AChE). The “AChE/BChE (proportion of AChE to BChE, selectivity)” value on AChE worked out at 0.763.

On to `COCNc1nccs1` [Compound 17, 2-(methoxy)methylaminothiazole], for which the IC50 on hCA I (setting [1]) was 142 nM; at hCA II (setting [3]) it was 187 nM; against BChE, 144 nM; on AChE (setting [6]), 80 nM. In addition, the Ki on hCA I (setting [2]) worked out at 157 ± 38 nM; on hCA II (setting [4]), 215 ± 40 nM; at BChE it was 42 ± 20 nM; on AChE (read-out: Ki AChE), 54 ± 10 nM. Also, on AChE, the “AChE/BChE (proportion of AChE to BChE, selectivity)” value was 1.285.
